Like-named read-outs stand apart in the source and are kept apart here.
What was measured:
[1] = tested on: 5 L (AhR+/+) and BP8 (AhR−/−) cells; assay: Cell cycle distribution of 5 L and BP8 cells (FACS); format: cell-based, mouse; details: 10 μM, 24 h
[2] = tested on: wild-type HCT-116 and HCT-116 sub-clones deprived of p53; assay: Survival of wild-type and p53-deprived HCT-116 cells, MTS; format: cell-based, human; details: 24 h
Protocol: Average±s.e. of three determinations. HCT116 human adenocarcinoma cell line were obtained from Dr. Vogelstein (The Howard Hughes Medical Institute, Sidney Kimmel Comprehensive Cancer Center, The Johns Hopkins School of Medicine, Baltimore, Md. 21231, USA). HCT116 cells were cultured in McCoy's 5A (Biowhittaker) supplemented with antibiotics and 10% FCS. General culture conditions were an atmosphere of 5% CO2 and a temperature of 37° C. Culture dishes and other plastic disposable tools were supplied by Corning (Corning, N.Y., USA). Indirubin treatments were performed on exponentially growing cultures at the indicated time and concentrations. Control experiments were carried also using appropriate dilutions of DMSO.

[3] = tested on: SH-SY5Y cells transfected with pcDNA3/Bcl-2 or pcDNA3/Bcl-XL; assay: Viability of Bcl-2 / Bcl-XL overexpressing SH-SY5Y cells, MTS; format: cell-based, human; details: 7BIO 25 μM, STS 2 μM; 9 and 24 h
[4] = tested on: effector caspases (DEVDase activity); assay: Effector caspase activation in IMR-5, IMR-32, HL-60 and Jurkat cells; format: cell-based, human; details: 25 μM, 24 h
Protocol: FIG. 15. […] Every point is the mean±s.e. of three independent experiments with six independent measurements per experiment. […] Bar value is the mean±s.e. of 6 independent determinations.
(§1) The measurement of caspase activity is based on determining the fluorescence released from the AcDEVDafc synthetic substrate after its direct addition to the culture medium, detergent lysis, and incubation at 37°. This method is devised to be applied to 96 multiwell plates. It allows kinetic determinations of caspase activation and the characterization of multiple drugs simultaneously. (Ribas et al., 2005).

[5] = tested on: p21^Cip1; assay: p21Cip1 expression, Western blotting; details: SH-SY5Y cells, 12.5 μM, 12 h
[6] = tested on: SH-SY5Y cells; assay: Nuclear morphology, bisBenzimide and propidium iodide staining; format: cell-based, human; details: 24 h; 10 or 25 μM
Protocol: Following double staining of DNA with BisBenzimide and propidium iodide, cells were examined by fluorescence microscopy. Thick arrows: apoptosis (nuclear fragmentation); thin arrows: secondary necrosis; arrow heads: pycnotic nuclei. Scale bar: 20 μm. Cell death characterization based on nuclear morphology was assessed by double staining with 0.05 μg/ml bisBenzimide and 25 μg/ml propidium iodide. Cell viability was determined by means of the MTS method. Both procedures have been previously described in detail (Ribas and Boix, 2004).

[7] = tested on: cytochome C release; assay: Cytochrome C release from mitochondria; details: 12.5 μM, 10 h
[8] = molecular target: CDK5/p25 (Homo sapiens, UniProt Q00535); assay: CDK5/p25 kinase assay; format: biochemical, mammalian
Chain of CDK5/p25 (Q00535 whole entry, species assumed): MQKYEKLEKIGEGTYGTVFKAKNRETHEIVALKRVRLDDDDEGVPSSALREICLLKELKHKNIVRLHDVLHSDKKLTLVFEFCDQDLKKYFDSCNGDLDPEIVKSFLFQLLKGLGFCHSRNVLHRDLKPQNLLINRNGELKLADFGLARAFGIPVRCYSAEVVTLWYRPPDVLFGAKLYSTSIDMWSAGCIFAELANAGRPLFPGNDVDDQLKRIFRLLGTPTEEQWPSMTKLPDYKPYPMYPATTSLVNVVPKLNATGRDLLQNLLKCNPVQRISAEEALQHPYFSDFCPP
Chain of CDK5/p25 (Q15078 99-307 partner limits assumed, species assumed): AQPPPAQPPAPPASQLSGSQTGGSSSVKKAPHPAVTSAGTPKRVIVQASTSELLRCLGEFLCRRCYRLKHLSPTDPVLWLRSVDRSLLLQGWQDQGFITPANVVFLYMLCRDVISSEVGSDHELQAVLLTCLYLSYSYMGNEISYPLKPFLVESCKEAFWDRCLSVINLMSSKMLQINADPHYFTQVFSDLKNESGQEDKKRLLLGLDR

[9] = tested on: AhR-dependent expression of p27^Kip1; assay: p27Kip1 expression in 5 L and BP8 hepatoma cells (Western blotting); format: cell-based, mouse; details: 10 μM, 24 h
Protocol: Actin Western blotting was used as a loading control. […] Average±s.e. of three determinations. […] Karlsruhe, Institute of Genetics, 76021 Karlsruhe, Germany). […] 6.8, 1 mM EDTA, 2% SDS.

[10] = tested on: effector caspase activity (DEVDase); assay: Caspase (DEVDase) assay in SH-SY5Y cells; format: cell-based, human; details: 24 h dose-response; time course at 25 μM
Protocol: The value of control untreated cells is placed at time 0. DEVDase activity was measured as arbitrary fluorescence units. Every point is the mean±s.e. of at least three independent determinations. (B). […] Every point is the mean±s.e. of at least three independent determinations.
as §1

[11] = tested on: SH-SY5Y cells; assay: DNA laddering (internucleosomal fragmentation); format: cell-based, human; details: 25 μM, 24 h
Protocol: (§2) Cell death characterization based on nuclear morphology was assessed by double staining with 0.05 μg/ml bisBenzimide and 25 μg/ml propidium iodide. Cell viability was determined by means of the MTS method. Both procedures have been previously described in detail (Ribas and Boix, 2004). For evaluation of DNA laddering, cell DNA was extracted and electrophoresed in 1.5% agarose gels to evidence the internucleosomal fragmentation typical of apoptosis.

[12] = tested on: SH-SY5Y cells; assay: SH-SY5Y cell survival, MTS reduction assay; format: cell-based, human
[13] = tested on: IMR-5, IMR-32, HL-60 and Jurkat cells; assay: Viability of IMR-5, IMR-32, HL-60 and Jurkat cells, MTS; format: cell-based, human; details: 24 h
Protocol: FIG. 15. […] Every point is the mean±s.e. of three independent experiments with six independent measurements per experiment. […] SH-SY5Y, IMR-5 and IMR-32 human neuroblastoma cell lines were grown in DMEM medium from (Biowhittaker) plus 2 mM L-glutamine from Eurobio (Courtaboeuf, France) or DMEM already supplemented with 2 mM L-glutamine (Invitrogen, Barcelona, Spain), plus antibiotics and a 10% volume of FCS (Invitrogen, Cergy Pontoise, France or Barcelona, Spain). SH-SY5Y cell lines permanently transfected with pcDNA3/Bcl-2, pcDNA3/Bcl-XL and empty pcDNA3 vectors were grown like their untransfected counterparts. However, Geneticin (G-418) selection was maintained in the growing cultures before the terminal experiments (Ribas and Boix, 2004). […] HL-60 and Jurkat cells were grown in RPMI 1640 medium with 10% FCS and antibiotics from Invitrogen (Barcelona, Spain).

[14] = tested on: 5 L (AhR+/+) and BP8 (AhR−/−) cells; details: 24 h
[15] = tested on: SH-SY5Y cells differentiated by retinoic acid; assay: Viability of RA-differentiated versus proliferating SH-SY5Y cells, MTS; format: cell-based, human; details: 24 h; 7BIO 25 μM, STS 1 μM
[16] = tested on: SH-SY5Y cells; assay: SH-SY5Y cell death, LDH release assay; format: cell-based, human; details: IO, 5BIO, 6BIO, 7BIO compared (FIG. 3B)
Protocol: In addition, cell death was estimated 48 h after the addition of each indirubin (25 μM) using the LDH release assay. As MTS reduction is occasionally observed under conditions different from cell death, an independent cell death evaluation procedure was used, the lactate dehydrogenase (LDH) release assay. This assay confirmed the induction of cell death by the indirubins of the invention, despite their overall lack of effects on CDKs and GSK-3.

[17] = tested on: p53; assay: p53 expression, Western blotting; details: SH-SY5Y cells, 12.5 μM
[18] = tested on: SH-SY5Y cells; assay: SH-SY5Y cell survival, MTS reduction assay; format: cell-based, human; remark: listed apart in the source
Protocol: SH-SY5Y, IMR-5 and IMR-32 human neuroblastoma cell lines were grown in DMEM medium from (Biowhittaker) plus 2 mM L-glutamine from Eurobio (Courtaboeuf, France) or DMEM already supplemented with 2 mM L-glutamine (Invitrogen, Barcelona, Spain), plus antibiotics and a 10% volume of FCS (Invitrogen, Cergy Pontoise, France or Barcelona, Spain). SH-SY5Y cell lines permanently transfected with pcDNA3/Bcl-2, pcDNA3/Bcl-XL and empty pcDNA3 vectors were grown like their untransfected counterparts. However, Geneticin (G-418) selection was maintained in the growing cultures before the terminal experiments (Ribas and Boix, 2004). In order to induce differentiation, SH-SY5Y cells were cultured on collagen coated plates and treated with 10 μM RA for five days.
as §2
The effects of each indirubin was tested, at a 25 μM final concentration, on the survival of the neuroblastoma SH-SY5Y cell line after 24 h or 48 h exposure.

[19] = tested on: MDA-MB-231 cells; assay: MDA-MB-231 cell proliferation and cell cycle distribution; format: cell-based, human
Protocol: MDA-MB-231 cells (derived from hormone-independent breast cancer) were cultured in DMEM supplemented with 10% FCS. For experiments, these cells were seeded in 24-well boxes or in 35 mm Petri dishes at appropriate densities (4.10^4 cells per well for cell growth experiments; 10^5 cells per dish for cell cycle analysis) and exposed to indirubins as indicated.

For “(2′Z,3′E)-7-bromoindirubin-3′-oxime [7BIO]”, the “cell cycle distribution of AhR−/− and AhR+/+ cells” value [1] was “striking AhR-dependent accumulation in G0/G1”, the “dose-response curves, wild-type versus p53-deprived HCT-116” value [2] was “essentially the same” and the “protection by Bcl-2 / Bcl-XL overexpression” value [3] was “neither Bcl-XL nor Bcl-2 overexpression provided any significant protection”. For the same substance, the “effector caspase activation (DEVDase activity)” value [4] was “fell consistently below the background”, the “induction of p21^Cip1 overexpression” value [5] was “negligible effects” and the “nuclear morphology / PI staining” value [6] was “numerous large, unfragmented pycnotic nuclei”. For the same substance, the “release of cytochome C from mitochondria” value [7] was “negligible release”, the “inhibitory activity on CDK5/p25 (in words)” value [8] was “marginal inhibitory activity” and the “inhibitory activity on CDK5/p25 (in words)” value ([8]; listed as 24) was “weak and gradually decreasing inhibitory activity”. For the same substance, the “AhR-dependent expression of p27^Kip1” value [9] was “potently enhance”, the “activation of caspase activity” value [10] was “remained at the level of control” and the DNA laddering [11] was “no ladder was observed”. For the same substance, the “sensitivity of cell death to the presence of the caspase inhibitor Q-VD-OPh” value ([12]; 20 μM Q-VD-OPh, MTS 43 h after addition (Table 5)) was “completely insensitive”, the “concentration required to reduce cell survival (MTS reduction)” value ([12]; 48 h, IO, 5BIO, 6BIO, 7BIO compared (FIG. 3A)) was “most potent compound” and the “induction of cell death” value [13] was “induced cell death in the same range of concentrations”. For the same substance, the “dose-response curves of cell death in 5 L versus BP8” value [14] was “essentially the same”, the “effect of cell differentiation on induced cell death” value [15] was “negligible effect” and the “cell death (LDH release)” value [16] was “most potent compound”. For the same substance, the “induction of p53” value [17] was “insignificant”, the “time required to induce 70% cell death” value ([18]; 25 μM (FIG. 7)) was ≤ 12 h and the “time to almost complete cell death” value ([18]; 25 μM (FIG. 7)) was ≤ 24 h. The “effect of Q-VD-Oph on induced cell death” value ([18]; 25 μM indirubin, 48 h, 10 μM Q-VD-OPh (FIG. 10)) was “no effect”, the “cell death inducing activity, position 7 halogen / N1-methyl series (MTS)” value ([18]; 48 h (FIG. 4)) was “equipotent” and the cell cycle distribution ([19]; 24 h, FACS) was “accumulation in G2/M and reduction of G0/G1”. For the same substance, the “cell proliferation by direct counting” value ([19]; 48 h exposure) was “dose-dependent inhibition of cell proliferation” and the “reversibility of the effect by removal of compound” value ([19]; medium replaced at 48 h) was “poorly if at all reversible”.

— patent US8552053B2, “7-substituted indirubin-3′oximes and their applications” (Centre National de la Recherche Scientifique, priority 2005, dated 2013)
